Results reported in patent US5583132A, “Sulfonylalkanoylamino hydroxyethylamino sulfamic acids useful as retroviral protease inhibitors” (priority 1995, dated 1996).

Key:
in vitro = assay type: cell-based; settings: human, cem cells
Description: Methods, 20, 309-321 (1988). Assays can be performed in 96-well tissue culture plates. […] Several wells receive culture medium without virus (uninfected control cells). […] Either azidothymidine (AZT) or dideoxyinosine (ddI) is included as a positive drug control. […] DMSO is added to all control wells at an appropriate concentration. […] To each sample is added 100 μl of 10% sodium dodecylsulfate in 0.01N HCl to lyse the cells, and samples are incubated overnight.

HIV protease = molecular target: T1, HIV protease (Human immunodeficiency virus type 1 group M subtype B, UniProt P04585); assay: HIV protease enzyme assay; assay type: biochemical
T1 construct: HIV protease is diluted in the assay buffer to a final enzyme concentration of 12.3 nanomolar, based on a molecular weight of 10,780
Text: The compounds of the present invention are effective HIV protease inhibitors. Utilizing an enzyme assay as described below, the compounds set forth in the examples herein disclosed inhibited the HIV enzyme. The preferred compounds of the present invention and their calculated IC50 (inhibiting concentration 50%, i.e., the concentration at which the inhibitor compound reduces enzyme activity by 50%) values are shown in Table 17. The enzyme method is described below. The substrate is 2-Ile-Nle-Phe(p-NO2)-Gln-ArgNH2. The positive control is MVT-101 (Miller, M. et al, Science, 246, 1149 (1989)] The assay conditions are as follows:
20 mM sodium phosphate, pH 6.4
The above described substrate is dissolved in DMSO, then diluted 10 fold in assay buffer. Final substrate concentration in the assay is 80 μM.
HIV protease is diluted in the assay buffer to a final enzyme concentration of 12.3 nanomolar, based on a molecular weight of 10,780.
The final concentration of DMSO is 14% and the final concentration of glycerol is 18%. The test compound is dissolved in DMSO and diluted in DMSO to 10x the test concentration; 10 μl of the enzyme preparation is added, the materials mixed and then the mixture is incubated at ambient temperature for 15 minutes. The enzyme reaction is initiated by the addition of 40 μl of substrate. The increase in fluorescence is monitored at 4 time points (0, 8, 16 and 24 minutes) at ambient temperature. Each assay is carried out in duplicate wells.

SMILES | inhibition at 10 µM (HIV protease) [%] | further results
CC(C)CN(C[C@@H](O)[C@H](Cc1ccccc1)NC(=O)OCc1ccccc1)S(=O)(=O)Nc1ccccc1 [E] |  | CC50 at 168 h (in vitro): 7.5 µM
CC(C)CN(C[C@@H](O)[C@H](Cc1ccccc1)NC(=O)[C@H](C)CS(C)(=O)=O)S(=O)(=O)NC(C)(C)C [Example 14] |  | IC50 (HIV protease; Table 9, HIV protease enzyme assay, pH 6.4, substrate 80 μM): 0.14 µM
CC(C)(C)NS(=O)(=O)N(C[C@@H](O)[C@H](Cc1ccccc1)NC(=O)OCc1ccccc1)C1CCCCC1 [K] | 60 | 
CC(C)CN(C[C@@H](O)[C@H](Cc1ccccc1)NC(=O)OCc1ccccc1)S(=O)(=O)NCCOCc1ccccc1 [L] | 38 | 
